What all share (assay type): biochemical
Assay [1] addresses human full length SYK (Homo sapiens (Human), UniProt P43405). As to the kind of experiment: In vitro SYK kinase assay. The settings on record: 20 uM ATP, 33P peptide phosphorylation. Here is the method: Spleen tyrosine kinase (SYK) is a tyrosine kinase that plays an important role in B cell signal transduction. SYK activity is measured by phosphorylation of a peptide substrate (Biotin-[…]) with [gamma-^33P] ATP. The enzyme reaction was conducted at 20 uM ATP with 0.05 uCi [gamma-^33P]ATP (2 uCi for 40 ul assay) and 10 uM peptide substrate at final volume of 40 ul in buffer containing 50 mM Hepes, pH 7.2, 1 mM dithiothreitol, 10 mM MgCl2, 100 uM Na3VO4, 0.1% BSA and 10% DMSO. The enzyme assay was carried out with human full length SYK in the presence or absence of ten compound concentrations. SYK and compound were pre-incubated for 10 minutes. Then, the enzymatic reaction was initiated by addition of ATP and peptide substrate. The reaction mixture was incubated at room temperature for 30 minutes. At the end of incubation, the reaction was terminated by transferring 25 ul of the reaction mixture to 100 ul of 10% streptavidin slurry containing 100 mM EDTA. The reaction product was captured on the affinity resin and sequentially washed on a filtration plate (Millipore, MABVNOB50) with 2M NaCl, 2M M NaCl in 1% phosphoric acid and water to remove free radio nucleotide. Then the incorporation of ^33P into peptide substrate was quantified on a microplate scintillation counter. Compound inhibition potency on SYK was measured by IC50 value generated from ten concentration inhibition curve fitted into the 3-parameter model: % inhibition=Maximum/(1+(IC50/[Inhibitor])^slope). Data were analyzed on Microsoft Excel for parameter estimation.

For assay [2], the target named is IRAK-4 (Homo sapiens (Human), UniProt Q9NWZ3). In words: In vitro IRAK-4 kinase assay. Particulars: purified recombinant IRAK-4, 50 uM ATP, 33P peptide phosphorylation. The essentials: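 Recombinant IRAK-4 or IRAK-1 incubated with 250 uM synthetic peptide in MOPS pH7.2 kinase buffer with 50 uM ATP, 20 mM MgCl2 and γ-33P ATP for the indicated time. Phosphorylated peptide captured on phosphocellulose, washed with phosphoric acid, quantified by scintillation counting.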

The target of assay [3] is IRAK-1 (Homo sapiens (Human), UniProt P51617). In words: In vitro IRAK-1 kinase assay. Particulars: purified recombinant IRAK-1, 50 uM ATP, 33P peptide phosphorylation. How it is done: Purified recombinant IRAK-4 protein was incubated with 250 uM synthetic peptide ([…]) in 30 ul of kinase buffer including (20 mM MOPS pH7.2, 25 mM beta glycerol phosphate, 5 mM EGTA, 1 mM sodium orthovanadate, 1 mM DTT, 50 uM ATP, 20 mM MgCl2, 10 uCi γ-^33P, 0.1% BSA) for the indicated time. For purified recombinant IRAK-1 protein kinase assay, 50 uM ATP was used. A 25 ul aliquot of the reaction mixture was transferred on to p81 phosphocellulose squares (Upstate Biotechnology, Lake Placid, N.Y.). The assay squares were washed three times with 0.75% phosphoric acid and once with acetone. Enzyme activity was measured by determining the bound radioactivity by liquid scintillation counting.

Each structure is given as a SMILES string. pIC50: −log10 of the molar value. Structures can show the parent of a compound that is named as a salt.

Sequence of IRAK-4 (Q9NWZ3 whole entry, species assumed): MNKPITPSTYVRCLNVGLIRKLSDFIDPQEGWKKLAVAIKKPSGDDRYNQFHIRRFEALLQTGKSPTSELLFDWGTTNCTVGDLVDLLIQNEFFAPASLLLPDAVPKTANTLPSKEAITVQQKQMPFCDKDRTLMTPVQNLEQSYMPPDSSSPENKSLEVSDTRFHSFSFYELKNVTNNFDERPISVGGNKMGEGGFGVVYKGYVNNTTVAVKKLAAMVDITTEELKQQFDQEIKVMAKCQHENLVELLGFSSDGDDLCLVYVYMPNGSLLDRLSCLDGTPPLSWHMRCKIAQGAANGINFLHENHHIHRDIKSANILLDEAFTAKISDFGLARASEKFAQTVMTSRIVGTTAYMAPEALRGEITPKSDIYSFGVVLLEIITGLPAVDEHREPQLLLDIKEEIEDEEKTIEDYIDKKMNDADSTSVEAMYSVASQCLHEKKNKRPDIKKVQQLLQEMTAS
Sequence of IRAK-1 (P51617 whole entry, species assumed): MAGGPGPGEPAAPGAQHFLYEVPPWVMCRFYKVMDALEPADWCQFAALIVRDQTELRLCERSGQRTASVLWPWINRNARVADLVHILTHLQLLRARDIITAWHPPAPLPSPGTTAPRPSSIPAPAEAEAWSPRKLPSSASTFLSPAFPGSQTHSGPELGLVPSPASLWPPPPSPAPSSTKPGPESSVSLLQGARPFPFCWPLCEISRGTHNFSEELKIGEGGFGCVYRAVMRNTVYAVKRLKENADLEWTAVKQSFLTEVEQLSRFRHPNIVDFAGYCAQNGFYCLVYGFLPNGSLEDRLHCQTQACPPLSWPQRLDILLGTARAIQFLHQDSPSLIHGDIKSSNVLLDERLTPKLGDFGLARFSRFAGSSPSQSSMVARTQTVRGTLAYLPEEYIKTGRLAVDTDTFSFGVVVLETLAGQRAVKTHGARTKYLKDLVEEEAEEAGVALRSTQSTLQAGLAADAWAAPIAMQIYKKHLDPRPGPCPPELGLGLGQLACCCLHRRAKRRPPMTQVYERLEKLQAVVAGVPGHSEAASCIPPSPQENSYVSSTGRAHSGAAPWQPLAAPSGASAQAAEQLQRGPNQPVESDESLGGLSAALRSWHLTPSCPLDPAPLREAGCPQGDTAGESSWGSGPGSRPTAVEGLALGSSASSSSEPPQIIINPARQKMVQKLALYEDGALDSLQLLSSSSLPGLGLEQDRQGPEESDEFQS

With `COc1cc2ncccc2cc1NC(=O)c1csc2cnc(NC3CC3)nc12` [Example 43, 2-Cyclopropylamino-thieno[3,2-d]pyrimidine-7-carboxylic acid (7-methoxy-quinolin-6-yl)-amide], the pIC50 in assay [1] was 6.09; in assay [2], 7.13; in assay [3] it was 6.24.
The corresponding values for `CC(O)CC(C)Oc1cc2ncccc2cc1NC(=O)c1csc2cncnc12` (centres unmarked) are 6.35, 7.62 and 6.12.
For `COc1cc2ncccc2cc1NC(=O)c1csc2cnc(NCCN)nc12` the same measures were 7.77, 8.00 and 6.15.
Regarding `O=C(Nc1cc2cccnc2cc1O[C@@H]1CC[C@H](O)C1)c1csc2cncnc12` [Example 54, hydrochloride], the pIC50 was 6.30 in assay [1] and 6.91 in assay [2].
For `COc1cc2ncccc2cc1NC(=O)c1csc2cnc(N[C@H](C)CO)nc12` [Example 39, 2-(2-Hydroxy-1-methyl-ethylamino)-thieno[3,2-d]pyrimidine-7-carboxylic acid (7-methoxy-quinolin-6-yl)-amide] the same measures were 6.31 and 7.20.
The corresponding values for `COc1cc2ncccc2cc1NC(=O)c1csc2cc(CO)cnc12` [Example 30, 6-Hydroxymethyl-thieno[3,{tildeover (2)}beta] pyridine-3-carboxylic acid (7-methoxy-quinolin-6-yl)-amide] are 6.13 and 7.46.
The corresponding values for `O=C(Nc1cc2cccnc2cc1OC1CCC(O)CC1)c1cnn2cccnc12` (centres unmarked) [Example 23] are 6.99 and 7.54.
As to `O=C(Nc1cc(Cl)ccc1OC1CCC(O)C1)c1cnn2cccnc12` (stereo not drawn) [Example 83, Pyrazolo[1,5-alpha]pyrimidine-3-carboxylic acid [5-chloro-2-(3-hydroxy-cyclopentyloxy)-phenyl]-amide], the pIC50 is 6.18 in assay [1] and 6.44 in assay [2].
With `COc1ccc(Cl)cc1NC(=O)c1csc2cnc(NCCN)nc12` [Example 53], the results for the pIC50 in assay [1], in assay [2] and in assay [3] were 6.46, 6.97 and 6.09, respectively.
`CC(C)(CCO)Oc1cc2ncccc2cc1NC(=O)c1csc2cncnc12` [Example 35, Thieno[3,2-d]pyrimidine-7-carboxylic acid [7-(3-hydroxy-1,1-dimethyl-propoxy)-quinolin-6-yl]-amide hydrochloride]: the figures for the pIC50 in assay [2] and in assay [3] were 7.31 and 6.44, respectively.
For `COc1cc2ncccc2cc1NC(=O)c1csc2cnc(N(C)CCO)nc12` [Example 24] the same measures were 7.54 and 6.52.
The corresponding values for `O=C(Nc1cc(Cl)ccc1N1CCCCC1)c1cnn2cc(O)cnc12` [Example 20, 6-Hydroxy-pyrazolo[1,5-a]pyrimidine-3-carboxylic acid (5-chloro-2-piperidin-1-yl-phenyl)-amide] are 7.62 and 6.19.
The corresponding values for `O=C(Nc1cc2cccnc2cc1O[C@H]1CC[C@H](O)CC1)c1csc2cncnc12` are 7.96 and 6.77.
With `NCC1CCN(c2cc3ncccc3cc2NC(=O)c2csc3cncnc23)CC1` [Example 14, hydrochloride], the negative logarithm of the IC50 (pIC50) in assay [2] was 7.92; in assay [3], 6.07.
The corresponding values for `O=C(Nc1cc(Cl)ccc1O[C@H]1CC[C@@H](O)CC1)c1csc2cncnc12` [Example 62, Thieno[3,2-d]pyrimidine-7-carboxylic acid [5-chloro-2-(4-hydroxy-cyclohexyloxy)-phenyl]-amide] are 6.83 and 6.90.
For `COc1cc2ncccc2cc1NC(=O)c1csc2cnc(NCCO)nc12` [Example 45, 2-(2-Hydroxy-ethylamino)-thieno[3,2-d]pyrimidine-7-carboxylic acid (7-methoxy-quinolin-6-yl)-amide], the results for the pIC50 in assay [1] and in assay [2] were 6.67 and 7.12, respectively.
With `O=C(Nc1cc2cccnc2cc1O[C@@H]1CC[C@@H](O)C1)c1csc2cncnc12` (stereo in doubt) [hydrochloride], the pIC50 was 7.82 in assay [2] and 6.61 in assay [3].
The corresponding values for `O=C(Nc1cc(Cl)ccc1O[C@H]1CC[C@H](O)CC1)c1csc2cncnc12` [Example 81, Thieno[3,2-d]pyrimidine-7-carboxylic acid [5-chloro-2-(4-hydroxy-cyclohexyloxy)-phenyl]-amide] are 6.47 and 6.22.
For `O=C(Nc1cc(Cl)ccc1OC1CCC(O)CC1)c1cnn2cccnc12` (stereo not drawn) [Example 90, Pyrazolo[1,5-alpha]pyrimidine-3-carboxylic acid [5-chloro-2-(4-hydroxy-cyclohexyloxy)-phenyl]-amide], the pIC50 in assay [1] was 6.09; in assay [2] it was 6.34.
For `NC(=O)C1CCN(c2ccc(Cl)cc2NC(=O)c2cnn3cccnc23)CC1` [Example 40, Pyrazolo[1,5-alpha]pyrimidine-3-carboxylic acid [2-(4-carbamoyl-piperidin-1-yl)-5-chloro-phenyl]-amide], the pIC50 in assay [1] was 6.30; in assay [2] it was 7.16.
`CN(C)CC1CCN(c2ccc(Cl)cc2NC(=O)c2cnn3cc(O)cnc23)CC1` [Example 37, 6-Hydroxy-pyrazolo[1,5-alpha]pyrimidine-3-carboxylic acid [5-chloro-2-(4-dimethyl-aminomethyl-piperidin-1-yl)-phenyl]-amide]: the negative logarithm of the IC50 (pIC50) in assay [2] was 7.28; in assay [3], 6.51.
For `NCCCOc1cc2ncccc2cc1NC(=O)c1csc2cncnc12` [Example 51, Thieno[3,2-d]pyrimidine-7-carboxylic acid [7-(3-amino-propoxy)-quinolin-6-yl]-amide], the results for the pIC50 in assay [1], in assay [2] and in assay [3] were 6.42, 6.99 and 6.28, respectively.
For the compound `O=C1Cc2cc(N3CCC(CO)CC3)c(NC(=O)c3cnn4cccnc34)cc2N1` [Example 34, Pyrazolo[1,5-alpha]pyrimidine-3-carboxylic acid [5-(4-hydroxymethyl-piperidin-1-yl)-2-oxo-2,3-dihydro-1H-indol-6-yl]-amide], the pIC50 is 6.32 in assay [1] and 7.31 in assay [2].
`CC(O)C1CCN(c2ccc(Cl)cc2NC(=O)c2cnn3cccnc23)C1` (stereo not drawn) [Example 44, Pyrazolo[1,{tildeover (5)}-alpha] pyrimidine-3-carboxylic acid {5-chloro-2-[3-(1-hydroxy-ethyl)-pyrrolidin-1-yl]-phenyl}-amide]: the pIC50 in assay [2] was 7.12; in assay [3], 6.05.
Regarding `O=C(Nc1cc2ccccc2cc1OC1CCC(O)CC1)c1cnn2cccnc12` (stereo not drawn) [Example 55, Pyrazolo[1,5-alpha]pyrimidine-3-carboxylic acid [3-(4-hydroxy-cyclohexyloxy)-napthalen-2-yl]-amide], the pIC50 in assay [1] is 6.20; in assay [2], 6.91; in assay [3] it was 6.09.

The values above are taken from US9255110B2 (Hoffmann-La Roche Inc., priority 2010, dated 2016).
